Where “and” joins values, the source holds several entries; their conditions need not be identical. Equal values may be shown once.
How the values were obtained:
MRGPRA1 [1] = molecular target: T1, MRGPRA1 (Mus musculus, UniProt Q91WW5); test: Ca2+ imaging and concentration-Ca2+ response (EC50) in HEK293 cells expressing MRGPRA1; type: cell-based; design: Ca2+ response: unit not given here; conditions: for Ca2+ response (concentration-response curve): MRGPRA1, triplicate wells (Fig 2D); for Ca2+ response: bilirubin, 3 replicate columns
T1 construct: expressed in transfected cells
T1 sequence (Q91WW5 1-304): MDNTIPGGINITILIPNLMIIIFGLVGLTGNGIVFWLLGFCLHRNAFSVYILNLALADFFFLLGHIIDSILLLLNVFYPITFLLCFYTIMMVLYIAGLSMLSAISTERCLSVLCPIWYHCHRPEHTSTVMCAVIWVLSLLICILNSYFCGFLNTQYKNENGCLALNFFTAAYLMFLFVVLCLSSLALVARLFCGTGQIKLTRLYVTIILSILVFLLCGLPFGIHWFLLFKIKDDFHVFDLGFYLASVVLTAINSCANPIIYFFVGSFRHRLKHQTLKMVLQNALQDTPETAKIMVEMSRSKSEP
Description: All cultured cells were maintained in DMEM supplemented with 10% FBS and 1% Penicillin/Streptomycin at 37°C, 5% CO2. All data included were generated from cells tested for mycoplasma and found to be negative. Cells were imaged in calcium imaging buffer (CIB; 10 mM HEPES, 1.2 mM NaHCO3, 130 mM NaCl, 3 mM KCl, 2.5 mM CaCl2, 0.6 mM MgCl2, 20 mM glucose, and 20 mM sucrose at pH 7.4 and 290–300 mOsm). To monitor changes in intracellular [Ca^2+] ([Ca^2+]i), cells were loaded with either Fura 2-AM (HEK293 cells) or Fluo 4-AM (DRG neurons and mast cells) for 30 min in the dark at 37°C in CIB just prior to imaging. With Fura 2-AM, emission at 510 nm was monitored from excitation at both 340 nm and 380 nm. With Fluo 4-AM, emission at 520 nm was monitored from excitation at 488 nm. Cells were identified as responding if the intracellular [Ca^2+] rose by either 50% compared to baseline or 50% compared to the [Ca^2+]i change assayed during addition of 50 mM KCl (neurons only). Damaged, detached, high-baseline, and motion-activated cells were excluded from analysis.
In initial screens, HEK293 cells stably expressing the murine G-protein alpha-subunit Gα15, a unique Gα protein that non-selectively couples a large variety of GPCRs to phospholipase C ^30, were plated on poly-D-lysine-coated coverslips and transiently transfected with constructs encoding the MRGRPR of interest. 12–24 hr later, cells were loaded with the Fura 2-AM. Unless otherwise specified, compounds were perfused into the imaging chamber for approximately thirty seconds after a baseline period was established. Response was then monitored at 5 s intervals for an additional 60 s.
HEK293 cells stably expressing either MRGPRA1, MRGPRX4, and MRGRPC11 were seeded in poly-D-lysine-coated 96-well plates at 10,000 cells/well. Cells were loaded with Fura 2–AM, washed twice, and maintained in CIB. Haem metabolites were freshly dissolved in DMSO in dim light and then diluted into a buffer comprised of 20 mM Tris and 150 mM NaCl at pH 8.8. Potential changes in pH were evaluated prior to each experiment. EC50 values were determined from dose-responses performed in triplicate, repeated 2–4 times. To determine potential antagonism by QWF against bilirubin, cells were treated with varying doses of QWF for 1 min in CIB prior to application of agonist.
HEK293 stable cell lines expressing GFP-tagged MRGPRA3, MRGPRC11, MRGPRD, MRGPRX1, and MRGPRX2 were generated in previously described reports ([Liu et al., 2009]; [Liu et al., 2012]; [McNeil et al., 2015]). Briefly, plasmids containing the receptor of interest were transfected into HEK cells using Lipofectamine 3000. After 3 days, cells were then selected using 0.5 mg/mL G418. After 3 weeks, monoclonal colonies were established and each the highest expressing clones were identified. For this study, Mrgpra1 and MRGPRX4 were inserted into pEGFP-N1 and transfected into HEK293 cells. MRGPR-positive cells were selected using 0.5 mg/mL G418 for three weeks, after which GFP-positive cells were sorted by FACS and monoclonally expanded. Two lines expressing similar levels of MRGPRA1 and MRGPRX4, as measured by GFP fluorescence, were selected for study.

MRGPRA1 [2] = molecular target: T1, MRGPRA1; test: Microscale thermophoresis binding to MRGPRA1; design: Transformed binding isotherm (mean of three experiments): unit not given here; conditions: MRGPRA1 (Fig 2E)
Description: (§1) Binding isotherms for MRGPRA1, MRGPRX4, and MRGRPC11 towards various ligands were determined by microscale thermophoresis with the NanoTemper monolith NT.115 instrument ([Duhr and Braun, 2006]). Ligands were pre-incubated with 10 µM of the GFP-tagged receptor of interest for 5 min at room temperature in binding buffer (20 mM Tris and 150 mM NaCl at pH 8.8). Receptors were crudely purified as a membrane fraction from cells stably expressing the receptor ([Vasavda et al., 2017]). Haem metabolites were freshly dissolved in 0.1 M NaOH in dim light and then diluted into assay buffer. Lyophilized BAM8-22 was dissolved in binding buffer. The pH of each ligand was evaluated prior to incubation with a receptor. Samples were loaded into NT.115 Hydrophobic-Treated Capillaries from NanoTemper. Microscale thermophoretic experiments were executed using 20% LED power and 15% MST power. KDs were calculated using the law of mass action with data from three independent experiments. Binding between bilirubin and receptors was evaluated purely thermophoretically, whereas binding between BAM8-22 and MRGPRC11 was evaluated by T-Jump. Samples with dramatic deviations in initial fluorescence were excluded.

MRGPRX4 = molecular target: T2, MRGPRX4 (Homo sapiens, UniProt Q96LA9); test: Microscale thermophoresis binding to MRGPRX4; design: microscale thermophoresis response (binding isotherm), mean: unit not given here; conditions: mean of n=3, Fig 2-J
T2 construct: expressed in transfected cells
Description: as §1

T2 sequence (Q96LA9 whole entry): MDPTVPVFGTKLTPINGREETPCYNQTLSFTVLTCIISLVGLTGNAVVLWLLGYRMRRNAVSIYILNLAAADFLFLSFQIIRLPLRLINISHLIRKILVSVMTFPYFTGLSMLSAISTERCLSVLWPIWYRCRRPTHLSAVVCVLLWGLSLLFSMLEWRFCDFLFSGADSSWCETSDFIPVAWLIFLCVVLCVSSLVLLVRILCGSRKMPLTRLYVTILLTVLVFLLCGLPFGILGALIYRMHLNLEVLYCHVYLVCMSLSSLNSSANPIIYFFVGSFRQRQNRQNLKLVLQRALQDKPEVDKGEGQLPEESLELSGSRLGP

Q: With `C=CC1=C(C)/C(=C/c2[nH]c(Cc3[nH]c(/C=C4\NC(=O)C(C)=C4C=C)c(C)c3CCC(=O)O)c(CCC(=O)O)c2C)NC1=O` [bilirubin, bilirubin IXα] as the compound, how does the “Calcium response / activation of MRGPRA1-expressing cells” value (MRGPRA1 [1]; 50 µM bilirubin, 30 µM FMRF) read?
A: exhibited a calcium response

Q: And the “Ca2+ response (concentration-response curve)” value (MRGPRA1 [1]; [Ligand] 3.90625e-6 M)?
A: 1.244 (2×) and 1.27

Q: And the “Ca2+ response (concentration-response curve)” value (MRGPRA1 [1]; [Ligand] 7.8125e-6 M)?
A: 1.285 and 1.272 and 1.244

Q: What about the “Ca2+ response (concentration-response curve)” value (MRGPRA1 [1]; [Ligand] 1.5625e-5 M) of the same compound?
A: 1.239 (2×) and 1.229

Q: And the “Ca2+ response (concentration-response curve)” value (MRGPRA1 [1]; [Ligand] 3.125e-5 M)?
A: 1.214 and 1.216 and 1.186

Q: What about the “Ca2+ response (concentration-response curve)” value (MRGPRA1 [1]; [Ligand] 6.25e-5 M) of the same compound?
A: 1.236 and 1.293 and 1.259

Q: And the “Ca2+ response (concentration-response curve)” value (MRGPRA1 [1]; [Ligand] 0.000125 M)?
A: 1.409 and 1.368 and 1.342

Q: And the “Ca2+ response (concentration-response curve)” value (MRGPRA1 [1]; [Ligand] 0.00025 M)?
A: 1.512 and 1.513 and 1.452

Q: What about the “Ca2+ response (concentration-response curve)” value (MRGPRA1 [1]; [Ligand] 0.0005 M) of the same compound?
A: 1.582 and 1.563 and 1.522

Q: What about the “Ca2+ response” value (MRGPRA1 [1]; [Ligand] (M) -3 (log scale)) of the same compound?
A: 92.1113 and 105.486 and 102.402

Q: What about the “Ca2+ response” value (MRGPRA1 [1]; [Ligand] (M) -3.30103 (log scale)) of the same compound?
A: 69.422 and 70.1483 and 63.5847

Q: And the “Ca2+ response” value (MRGPRA1 [1]; [Ligand] (M) -3.60206 (log scale))?
A: 71.8089 and 75.8019 and 75.1545

Q: What about the “Ca2+ response” value (MRGPRA1 [1]; [Ligand] (M) -3.90309 (log scale)) of the same compound?
A: 61.2591 and 54.8317 and 55.4389

Q: What about the “Ca2+ response” value (MRGPRA1 [1]; [Ligand] (M) -4.20412 (log scale)) of the same compound?
A: 49.8998 and 18.4414 and 32.057

Q: What about the “Ca2+ response” value (MRGPRA1 [1]; [Ligand] (M) -4.50515 (log scale)) of the same compound?
A: 6.418 and 7.051 and 1.245

Q: What about the “Ca2+ response” value (MRGPRA1 [1]; [Ligand] (M) -4.80618 (log scale)) of the same compound?
A: 27.9538 and 0 (2×)

Q: And the “Ca2+ response” value (MRGPRA1 [1]; [Ligand] (M) -5.10721 (log scale))?
A: 34.8054 and 0 (2×)

Q: What about the “Transformed binding isotherm (mean of three experiments)” value (“Transformed binding isotherm” for short) (MRGPRA1 [2]; [Ligand] 3.05e-8 M) of the same compound?
A: 6.015

Q: What about the “Transformed binding isotherm” value (MRGPRA1 [2]; [Ligand] 6.1e-8 M) of the same compound?
A: 5.1124

Q: What about the “Transformed binding isotherm” value (MRGPRA1 [2]; [Ligand] 1.221e-7 M) of the same compound?
A: 3.41

Q: And the “Transformed binding isotherm” value (MRGPRA1 [2]; [Ligand] 2.441e-7 M)?
A: 3.271

Q: And the “Transformed binding isotherm” value (MRGPRA1 [2]; [Ligand] 4.883e-7 M)?
A: -3.226

Q: What about the “Transformed binding isotherm” value (MRGPRA1 [2]; [Ligand] 9.766e-7 M) of the same compound?
A: -3.391

Q: What about the “Transformed binding isotherm” value (MRGPRA1 [2]; [Ligand] 1.9531e-6 M) of the same compound?
A: 7.109

Q: What about the “Transformed binding isotherm” value (MRGPRA1 [2]; [Ligand] 7.8125e-6 M) of the same compound?
A: 1.334

Q: What about the “Transformed binding isotherm” value (MRGPRA1 [2]; [Ligand] 1.5625e-5 M) of the same compound?
A: 2.3419

Q: What about the “Transformed binding isotherm” value (MRGPRA1 [2]; [Ligand] 3.125e-5 M) of the same compound?
A: 16.9295

Q: What about the “Transformed binding isotherm” value (MRGPRA1 [2]; [Ligand] 6.25e-5 M) of the same compound?
A: 43.5974

Q: What about the “Transformed binding isotherm” value (MRGPRA1 [2]; [Ligand] 0.000125 M) of the same compound?
A: 64.6366

Q: What about the “Transformed binding isotherm” value (MRGPRA1 [2]; [Ligand] 0.00025 M) of the same compound?
A: 80.7081

Q: What about the “Transformed binding isotherm” value (MRGPRA1 [2]; [Ligand] 0.0005 M) of the same compound?
A: 102.789

Q: And the “Transformed binding isotherm” value (MRGPRA1 [2]; [Ligand] 0.001 M)?
A: 103.048

Q: What about the “microscale thermophoresis response (binding isotherm), mean” value (“microscale thermophoresis response” for short) (MRGPRX4; [Ligand] 3.05e-8 M) of the same compound?
A: 7.584

Q: And the “microscale thermophoresis response” value (MRGPRX4; [Ligand] 6.1e-8 M)?
A: 6.444

Q: What about the “microscale thermophoresis response” value (MRGPRX4; [Ligand] 1.221e-7 M) of the same compound?
A: 6.442

Q: And the “microscale thermophoresis response” value (MRGPRX4; [Ligand] 2.441e-7 M)?
A: 4.051

Q: And the “microscale thermophoresis response” value (MRGPRX4; [Ligand] 4.883e-7 M)?
A: -2.46

Q: What about the “microscale thermophoresis response” value (MRGPRX4; [Ligand] 9.766e-7 M) of the same compound?
A: -5.393

Q: And the “microscale thermophoresis response” value (MRGPRX4; [Ligand] 1.9531e-6 M)?
A: 5.84

Q: What about the “microscale thermophoresis response” value (MRGPRX4; [Ligand] 3.9063e-6 M) of the same compound?
A: 1.017

Q: What about the “microscale thermophoresis response” value (MRGPRX4; [Ligand] 7.8125e-6 M) of the same compound?
A: 9.66

Q: And the “microscale thermophoresis response” value (MRGPRX4; [Ligand] 1.5625e-5 M)?
A: 19.4349

Q: What about the “microscale thermophoresis response” value (MRGPRX4; [Ligand] 3.125e-5 M) of the same compound?
A: 35.6519

Q: And the “microscale thermophoresis response” value (MRGPRX4; [Ligand] 6.25e-5 M)?
A: 68.0309

Q: And the “microscale thermophoresis response” value (MRGPRX4; [Ligand] 0.000125 M)?
A: 97.8035

Q: What about the “microscale thermophoresis response” value (MRGPRX4; [Ligand] 0.00025 M) of the same compound?
A: 117.52

Q: And the “microscale thermophoresis response” value (MRGPRX4; [Ligand] 0.0005 M)?
A: 123.698

Q: What about the “microscale thermophoresis response” value (MRGPRX4; [Ligand] 0.001 M) of the same compound?
A: 119.096

Source: publication PMC6368403, “Identification of a bilirubin receptor that may mediate a component of cholestatic itch” (eLife, 2019)
